Source: patent publication US8980848B2, “Flavonoid dimers and their use” (The Hong Kong Polytechnic University, priority 2010, dated 2015)

Legend:
[1] = Tumor cell line cytotoxicity of flavonoid dimers, LCC6MDR; assay type: cell-based, human; details: human, LCC6MDR cells, IC50 of compound alone
Method in brief: (§1)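 LCC6, LCC6MDR and L929 cells seeded at 1×10^4 cells/well and exposed to graded doses of flavonoid dimers. Incubation 72 hrs at 37° C., 5% CO2. Read-out: % survivors.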

[2] = tested on: LCC6 cells; experiment: Doxorubicin influx in LCC6 cells; assay type: cell-based, human; details: after 75 min
Method: (§2) Influx and Efflux Studies. […] 0.15% of DMSO acted as a negative control. The cells were harvested after 0, 15, 30, 45, 75 min for determining the intracellular Doxorubycin concentration as described previously. […] The cells were then washed and further incubated in the presence or absence of compound 18 (1 or 3 μM). At 0, 15, 30, 60, 90, 120, 150 and 180 min, the cells were harvested for measuring the intracellular Doxorubycin concentration.
(§3) Effect of Compound 18 on Doxorubicin Influx and Efflux of MDA435/LCC6MDR Cells. Experiments were performed to determine whether the increased accumulation of doxorubicin in LCC6MDR cells caused by 18 is due to potentiation of doxorubicin influx or inhibition of efflux.

[3] = Tumor cell line cytotoxicity of flavonoid dimers, LCC6; assay type: cell-based, human; details: human, LCC6 cells, IC50 of compound alone
Method in brief: as §1

[4] = tested on: LCC6MDR cells; experiment: Doxorubicin influx in LCC6MDR cells; assay type: cell-based, human; details: for Intracellular doxorubicin level, influx: LCC6MDR, after 75 min
Method: as §2, §3

[5] = tested on: LdAG83 promastigotes (wild type); experiment: In vitro anti-promastigote activity, LdAG83; assay type: cell-based, Leishmania donovani; details: Leishmania donovani, 72 h, read-out: Anti-promastigotes activity (IC50, μM) LdAG83
Method in brief: (§4)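 L. donovani (LdAG83 wild type, SSG-resistant Ld39) and L. major Lm50122 promastigotes were seeded at 1×10^5 per well with a concentration series of compound.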

[6] = Cytotoxicity of flavonoid dimers, L929 mouse fibroblast; assay type: cell-based; details: mouse, L929 fibroblast cells, IC50 of compound alone, 72 hrs, mouse fibroblast
Method in brief: as §1

[7] = Cytotoxicity over LCC6, LCC6MDR and L929 cell lines; assay type: cell-based, human, mouse; details: human, mouse, LCC6MDR and L929 cell lines; cancer lines LCC6, LCC6MDR and/or L929
[8] = tested on: LCC6 cells; experiment: Doxorubicin accumulation in LCC6 cells; assay type: cell-based, human; details: 1 μM
Description: Doxorubycin accumulation. […] […].

[9] = tested on: Raw264.7 cells; experiment: Cytotoxicity, mouse macrophage Raw264.7; assay type: cell-based; details: Mus musculus, RAW264.7, 72 h
Method in brief: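 Raw264.7 (1×10^4 cells/well) and primary PEM cells (2×10^4 cells/well) in supplemented DMEM received graded compound doses and were incubated 72 h at 37 °C, 5% CO2. Percent survivors determined; cytotoxicity IC50 used for therapeutic index against antileishmanial IC50.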

[10] = tested on: Ld39 promastigotes (SSG-resistant); experiment: In vitro anti-promastigote activity, Ld39; assay type: cell-based, Leishmania donovani; details: Leishmania donovani, 72 h, read-out: Anti-promastigotes activity (IC50, μM) Ld39
Method in brief: as §4

[11] = tested on: LCC6 cells; experiment: Doxorubicin efflux in LCC6 cells; assay type: cell-based, human; details: after 3 hrs
Method: as §2
In the efflux experiments, both LCC6 and LCC6MDR were first pre-loaded with doxorubicin for 2 hrs, washed and the remaining doxorubicin was measured after 0, 15, 30, 60, 90, 120, 150 and 180 min. […] Thus efflux rate of LCC6MDR is higher than LCC6. At 1DM or 3 μM of 18, the doxorubicin efflux rate was unaltered in the wild type LCC6 cells. After 3 hrs, the intracellular doxorubicin levels of LCC cells at 1 μM (3122 FU, 71% of doxorubicin remained) and 3 μM (3103 FU, 71% of doxorubicin remained) were very close to that at 0 μM (2601 FU, 60% of doxorubicin remained), respectively (FIG. 3A).

[12] = target: T1, Pgp (LCC6MDR cells) (Homo sapiens, UniProt P08183); experiment: Doxorubicin accumulation in LCC6MDR cells
[13] = target: T1, Pgp (LCC6MDR cells); experiment: Cell proliferation assay: Pgp-modulating activity, reversal of anticancer drug resistance in LCC6MDR cells; details: for EC50: EC50 of compounds for reversing anticancer drug resistance (nM), LCC6MDR
[14] = tested on: LCC6 cells; experiment: Cell proliferation assay: paclitaxel on parental LCC6 cells without modulator; assay type: cell-based; details: Homo sapiens, LCC-6, no modulator, read-out: IC50 of paclitaxel of LCC6 in the absence of modulators
Description: Cell Proliferation Assay.

T1 sequence (P08183 whole entry): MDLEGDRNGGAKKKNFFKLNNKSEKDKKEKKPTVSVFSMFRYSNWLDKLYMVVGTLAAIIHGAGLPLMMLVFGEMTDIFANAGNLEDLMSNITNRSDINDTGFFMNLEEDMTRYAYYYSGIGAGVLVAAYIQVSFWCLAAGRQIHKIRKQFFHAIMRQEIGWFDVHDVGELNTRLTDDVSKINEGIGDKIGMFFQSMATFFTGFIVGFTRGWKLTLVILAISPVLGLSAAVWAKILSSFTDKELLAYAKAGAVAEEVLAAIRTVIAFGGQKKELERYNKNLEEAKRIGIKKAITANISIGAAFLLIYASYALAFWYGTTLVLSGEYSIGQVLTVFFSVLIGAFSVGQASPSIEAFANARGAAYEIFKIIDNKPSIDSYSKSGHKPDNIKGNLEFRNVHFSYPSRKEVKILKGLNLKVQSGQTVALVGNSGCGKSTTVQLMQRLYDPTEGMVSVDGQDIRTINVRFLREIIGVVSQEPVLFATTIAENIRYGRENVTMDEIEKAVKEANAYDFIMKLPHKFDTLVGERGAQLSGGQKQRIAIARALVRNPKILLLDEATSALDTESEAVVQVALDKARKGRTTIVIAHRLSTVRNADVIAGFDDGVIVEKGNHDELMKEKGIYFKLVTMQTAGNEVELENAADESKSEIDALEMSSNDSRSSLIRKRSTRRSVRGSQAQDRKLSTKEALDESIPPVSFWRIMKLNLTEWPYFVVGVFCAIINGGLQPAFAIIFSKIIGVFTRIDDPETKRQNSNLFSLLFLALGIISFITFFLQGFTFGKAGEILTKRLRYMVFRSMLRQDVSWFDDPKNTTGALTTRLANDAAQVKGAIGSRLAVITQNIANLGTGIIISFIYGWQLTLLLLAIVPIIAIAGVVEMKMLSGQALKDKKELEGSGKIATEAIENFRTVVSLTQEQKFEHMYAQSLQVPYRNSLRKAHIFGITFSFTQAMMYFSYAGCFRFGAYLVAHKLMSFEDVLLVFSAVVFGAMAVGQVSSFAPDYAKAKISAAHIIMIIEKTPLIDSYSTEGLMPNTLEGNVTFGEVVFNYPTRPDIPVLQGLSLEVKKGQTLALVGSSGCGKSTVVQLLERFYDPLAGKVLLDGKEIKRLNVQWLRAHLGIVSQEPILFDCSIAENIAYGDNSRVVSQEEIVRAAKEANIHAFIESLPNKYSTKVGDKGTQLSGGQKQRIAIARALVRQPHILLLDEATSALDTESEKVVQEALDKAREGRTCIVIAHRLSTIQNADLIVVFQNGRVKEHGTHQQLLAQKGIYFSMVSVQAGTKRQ

SMILES: O=c1cc(-c2ccc(OCCOCCN(CCOCCOc3ccc(-c4cc(=O)c5ccccc5o4)cc3)Cc3ccccc3)cc2)oc2ccccc12 [Compound 18, 1,13-Bis[4′-(4H-chromen-4-on-2-yl)phenyl]-N-(benzyl)-1,4,10,13-tetraoxa-7-azamidecane]
- IC50 at 72 h [1]: > 63 µM
- Intracellular doxorubicin level, influx ([2]; LCC6, 1 μM): 0-1320 FU
- Intracellular doxorubicin level, influx ([2]; LCC6, 3 μM): 0-1035 FU
- IC50 at 72 h [3]: > 75 µM
- Effect on doxorubicin influx ([4]; 1 or 3 μM, LCC6 and LCC6MDR): no effect on doxorubicin influx
- Intracellular doxorubicin level, influx ([4]; 1 μM): 0-803 FU
- Intracellular doxorubicin level, influx ([4]; 3 μM): 0-909 FU
- IC50 [5]: 8.4 ± 6.1 µM
- IC50 at 72 h [6]: 85 µM
- IC50 at 72 h [7]: > 63000 nM
- Effect on intracellular doxorubicin accumulation in parental LCC6 [8]: does not increase
- IC50 [9]: > 79000 nM
- IC50 [10]: 12.3 ± 6 µM
- Doxorubicin remained ([11]; LCC6, 1 μM): 71%
- Intracellular doxorubicin level, efflux ([11]; LCC6, 1 μM): 3122 FU
- Doxorubicin remained ([11]; LCC6, 3 μM): 71%
- Intracellular doxorubicin level, efflux ([11]; LCC6, 3 μM): 3103 FU
- Fold more active than verapamil in inhibiting doxorubicin transport activity of Pgp [12]: roughly 16 fold
- Concentration to restore doxorubicin accumulation in LCC6MDR to levels of parental LCC6 ([12]; LCC6MDR): 500 nM
- EC50 ([13]; Daunorubicin): 95 ± 25 nM
- EC50 ([13]; Doxorubicin): 131 ± 13 nM
- EC50 ([13]; Mitoxantrone): 90 ± 20 nM
- EC50 ([13]; Paclitaxel): 148 ± 18 nM
- EC50 ([13]; Vinblasinte, vinblastine): 173 ± 27 nM
- EC50 ([13]; Vincristine): 179 ± 32 nM
- Therapeutic index ([13]; IC50 of compounds for L929/EC50 of compounds for lowering paclitaxel drug resistance): 574.3

SMILES: CC(=O)O[C@H]1C(=O)[C@@]2(C)[C@H]([C@H](OC(=O)c3ccccc3)[C@]3(O)C[C@H](OC(=O)[C@H](O)[C@@H](NC(=O)c4ccccc4)c4ccccc4)C(C)=C1C3(C)C)[C@]1(OC(C)=O)CO[C@@H]1C[C@@H]2O [paclitaxel]
- IC50 [14]: 1.6 ± 0.3 nM
